{"source": "patent US20240148722A1", "about": "“SMALL MOLECULES THAT BIND TO TDP-43 FOR THE TREATMENT OF ALS AND RELATED DISORDERS” (Biohaven Therapeutics Ltd., priority 2021, published 2024)", "data": [{"biological_target": "TDP-43 1-260 (Homo sapiens, UniProt Q13148)", "sequence (Q13148 1-260)": "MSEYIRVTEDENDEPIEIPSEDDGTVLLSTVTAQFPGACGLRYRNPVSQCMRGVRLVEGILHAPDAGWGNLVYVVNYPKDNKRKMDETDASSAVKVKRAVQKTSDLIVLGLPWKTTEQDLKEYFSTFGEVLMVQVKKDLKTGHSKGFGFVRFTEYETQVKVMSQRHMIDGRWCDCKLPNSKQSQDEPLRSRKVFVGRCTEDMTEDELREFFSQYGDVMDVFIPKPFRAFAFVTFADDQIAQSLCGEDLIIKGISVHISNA", "assay": "TDP-43 alpha-screen assay with bt-TAR32", "type": "binding", "conditions": "bt-TAR32 0.125 nM; 3 h at room temperature; read-out: Activity (μM) in the TDP-43-DNA alpha-screen assay", "units": {"IC50": "µM"}, "experimental": "Alpha-screen assay. […] Briefly, assays contained TDP-43 1-260 (15 ng/mL, 0.27 nM), 10 mg/mL of both streptavidin donor beads and anti-GST acceptor beads with various concentrations of bt-TAR32 (˜18 to +14 in the HIV1 LTR) and test compound in a final volume of 20 mL of 25 mM Tris, 0.1% CHAPS, pH 7.4 in white, opaque low volume 384-well plates. After 3 h incubation at room temperature, the AlphaScreen signal was measured using a Synergy 2 plate reader (Biotek, Winooski, VT). […] Nonspecific binding was determined in the presence of 10 mM bt-TDP43 and was less than 10% of total binding. IC50 values were obtained from nonlinear regression fits of the data to a one-site binding model using Graph Pad Prism, version 5.0 (GraphPad Software, San Diego, CA). Comparison of competitive inhibition and mixed type inhibition models were evaluated using the F-test on global fits of the data also in Graph Pad Prism, version 5.0.", "values": [{"molecule": "6-(4-(2-(pyrrolidin-1-yl)ethoxy)phenyl)-N-(piperidin-4-yl)-1H-indazol-3-amine [Example 95]", "IC50": 2.4}, {"molecule": "CN(CCCN)CCCNc1cc(-c2ccc(N3CCNCC3)cc2)nc(-c2ccc(N3CCNCC3)cc2)c1", "note": "[Example 1]", "IC50": 0.02}, {"molecule": "COc1ccc(-c2cc(NCCCN(C)CCCN)cc(-c3ccc(N4CCNCC4)cc3)n2)cc1", "note": "[Example 2, N-{3-[(3-aminopropyl)(methyl)amino]propyl}-2-(4-methoxyphenyl)-6-[4-(piperazin-1-yl)phenyl]pyridin-4-amine]", "IC50": 0.03}, {"molecule": "COc1ccc(-c2cc(NC3CCN(C4CCC(N)CC4)CC3)cc(-c3ccc(N4CCNCC4)cc3)n2)cc1", "note": "(stereo not drawn) [Example 3]", "IC50": 0.03}, {"molecule": "CN(CCCN)CCCNc1cc(-c2ccc(N3CCNCC3)cc2)nc(-c2ccc(N3CCNCC3)nc2)c1", "note": "[Example 4]", "IC50": 0.04}, {"molecule": "COc1ccc(-c2cc(NC3CCN(CCCN)CC3)cc(-c3ccc(N4CCN(C)CC4)cc3)n2)cc1", "note": "[Example 5, N-(1-(3-aminopropyl)piperidin-4-yl)-2-(4-methoxyphenyl)-6-(4-(4-methylpiperazin-1-yl)phenyl)pyridin-4-amine]", "IC50": 0.04}, {"molecule": "COc1ccc(-c2cc(NCCCNC3CC(N)C3)cc(-c3ccc(N4CCNCC4)cc3)n2)cc1", "note": "(stereo not drawn) [Example 6]", "IC50": 0.04}, {"molecule": "COc1ccc(-c2cc(NCCCN(C)CCCN)cc(-c3cccc(N4CCNCC4)c3)n2)cc1", "note": "[Example 7, N-{3-[(3-aminopropyl)(methyl)amino]propyl}-2-(4-methoxyphenyl)-6-[3-(piperazin-1-yl)phenyl]pyridin-4-amine]", "IC50": 0.05}, {"molecule": "CN(CCCN)CCCNc1cc(-c2ccc(C3CCNCC3)cc2)nc(-c2ccc(N3CCNCC3)cc2)c1", "note": "[Example 8]", "IC50": 0.05}, {"molecule": "COc1ccc(-c2cc(NC3CCNCC3)cc(-c3ccc(N4CCN(C)CC4)cc3)n2)cc1", "note": "[Example 9, 2-(4-methoxyphenyl)-6-(4-(4-methylpiperazin-1-yl)phenyl)-N-(piperidin-4-yl)pyridin-4-amine]", "IC50": 0.05}, {"molecule": "COc1ccc(-c2cc(NCCCN(C)CCCN)cc(-c3ccc(N4CCN(CC5CC5)CC4)cc3)n2)cc1", "note": "[Example 10]", "IC50": 0.06}, {"molecule": "CN(CCCN)CCCNc1cc(C#CC2CCNCC2)nc(-c2ccc(N3CCNCC3)cc2)c1", "note": "[Example 11, N-{3-[(3-aminopropyl)(methyl)amino]propyl}-2-[4-(piperazin-1-yl)phenyl]-6-[2-(piperidin-4-yl)ethynyl]pyridin-4-amine]", "IC50": 0.06}, {"molecule": "COc1ccc(-c2cc(NC3CCN(CC4CNC4)CC3)cc(-c3ccc(N4CCN(C)CC4)cc3)n2)cc1", "note": "[Example 12, N-(1-(azetidin-3-ylmethyl)piperidin-4-yl)-2-(4-methoxyphenyl)-6-(4-(4-methylpiperazin-1-yl)phenyl)pyridin-4-amine]", "IC50": 0.06}, {"molecule": "COc1ccc(-c2cc(NCCCN(C)CCCN)cc(-c3cnn(C4CCN(C)CC4)c3)n2)cc1", "note": "[Example 13, N-{3-[(3-aminopropyl)(methyl)amino]propyl}-2-(4-methoxyphenyl)-6-[1-(1-methylpiperidin-4-yl)-1H-pyrazol-4-yl]pyridin-4-amine]", "IC50": 0.065}, {"molecule": "COc1ccc(-c2cc(NCCCN(C)CCCN)cc(-c3ccc(N4CCN(CC5CNC5)CC4)cc3)n2)cc1", "note": "[Example 14]", "IC50": 0.07}, {"molecule": "CN(CCCN)CCCNc1cc(-c2ccc(CN3CCNCC3)cc2)nc(-c2ccc(N3CCNCC3)cc2)c1", "note": "[Example 16]", "IC50": 0.07}, {"molecule": "COc1ccc(-c2cc(NCCCN3CCC(CN)CC3)cc(-c3ccc(N4CCNCC4)cc3)n2)cc1", "note": "[Example 18]", "IC50": 0.07}, {"molecule": "CNc1ccc(-c2cc(NCCCN(C)CCCN)cc(-c3ccc(OC)cc3)n2)cc1", "note": "[Example 19]", "IC50": 0.08}, {"molecule": "COc1ccc(-c2cc(NCCCN(C)CCCN)cc(-c3ccc(CN4CCNCC4)cc3)n2)cc1", "note": "[Example 20]", "IC50": 0.08}, {"molecule": "COc1ccc(-c2cc(NCC3CCN(CC4CCNC4)C3)cc(-c3ccc(N4CCN(C)CC4)cc3)n2)cc1", "note": "(stereo not drawn) [Example 21]", "IC50": 0.08}, {"molecule": "COc1ccc(-c2cc(NCC3CCN(C4CCNCC4)C3)cc(-c3ccc(N4CCN(C)CC4)cc3)n2)cc1", "note": "(stereo not drawn) [Example 22]", "IC50": 0.08}, {"molecule": "COc1ccc(-c2cc(NCCCN(C)CCCN)cc(-c3ccc(N4CCN(C)CC4)cc3)n2)cc1", "note": "[Example 23]", "IC50": 0.08}, {"molecule": "COc1ccc(-c2cc(NCCCN(C)CCCN)cc(-c3ccc(CN4CCCC4)cc3)n2)cc1", "note": "[Example 24]", "IC50": 0.09}, {"molecule": "COc1ccc(-c2cc(NCC3CCN(CC4CCNC4)CC3)cc(-c3ccc(N4CCN(C)CC4)cc3)n2)cc1", "note": "(stereo not drawn) [Example 25]", "IC50": 0.09}, {"molecule": "COc1ccc(-c2cc(NCCCN3CCC(CN)C3)cc(-c3ccc(N4CCNCC4)cc3)n2)cc1", "note": "(stereo not drawn) [Example 26]", "IC50": 0.1}, {"molecule": "COc1ccc(-c2cc(NC3CCN(C4CCN(C)CC4)CC3)cc(-c3ccc(N4CCNCC4)cc3)n2)cc1", "note": "[Example 27, N-(2-(4-methoxyphenyl)-6-(4-(piperazin-1-yl)phenyl)pyridin-4-yl)-1′-methyl-[1,4′-bipiperidin]-4-amine]", "IC50": 0.11}, {"molecule": "CN(CCCN)CCCNc1cc(-c2ccc(N3CCNCC3)cc2)nc(-c2ccc3c(c2)CCNC3)c1", "note": "[Example 28]", "IC50": 0.11}, {"molecule": "COc1ccc(-c2cc(NCC3CCN(CC4CNC4)CC3)cc(-c3ccc(N4CCN(C)CC4)cc3)n2)cc1", "note": "[Example 29]", "IC50": 0.11}, {"molecule": "COc1ccc(-c2cc(NC3CCN(CC4CCNC4)CC3)cc(-c3ccc(N4CCNCC4)cc3)n2)cc1", "note": "(stereo not drawn) [Example 30]", "IC50": 0.12}, {"molecule": "COc1ccc(-c2cc(NCCCN)cc(-c3ccc(N4CCNCC4)cc3)n2)cc1", "note": "[Example 31, N^1-(2-(4-methoxyphenyl)-6-(4-(piperazin-1-yl)phenyl)pyridin-4-yl)propane-1,3-diamine]", "IC50": 0.12}, {"molecule": "COc1ccc(-c2cc(NCCCN(C)CCCN)cc(-c3ccc(N4CCN(C)CC4)cc3)n2)cc1", "note": "[Example 32]", "IC50": 0.13}, {"molecule": "COc1ccc(-c2cc(NCCCN(C)CCCN)cc(-c3ccc(-c4ccncc4)cc3)n2)cc1", "note": "[Example 33]", "IC50": 0.13}, {"molecule": "COc1ccc(-c2cc(NCC3CCN(CC4CNC4)C3)cc(-c3ccc(N4CCN(C)CC4)cc3)n2)cc1", "note": "(stereo not drawn) [Example 34]", "IC50": 0.14}, {"molecule": "COc1ccc(-c2cc(NCCCN(C)CCCN)cc(-c3ccc(OCCCN(C)C)nc3)n2)cc1", "note": "[Example 35, N-{3-[(3-aminopropyl)(methyl)amino]propyl}-6′-[3-(dimethylamino)propoxy]-6-(4-methoxyphenyl)-[2,3′-bipyridin]-4-amine]", "IC50": 0.15}, {"molecule": "COc1ccc(-c2cc(NC3CCN(C4CCN(C)CC4)CC3)cc(-c3ccc(N4CCNCC4)cc3)n2)cc1", "note": "[Example 36]", "IC50": 0.15}, {"molecule": "COc1ccc(-c2cc(NCCCN(C)CCCN)cc(OCCN3CCCC3)n2)cc1", "note": "[Example 37, N-{3-[(3-aminopropyl)(methyl)amino]propyl}-2-(4-methoxyphenyl)-6-[2-(pyrrolidin-1-yl)ethoxy]pyridin-4-amine]", "IC50": 0.16}, {"molecule": "COc1ccc(-c2cc(NCCCN(C)CCCN)cc(-c3ccc(N4CCN(C(=O)OC(C)(C)C)CC4)cc3)n2)cc1", "note": "[Example 38]", "IC50": 0.17}, {"molecule": "COc1ccc(-c2cc(NC3CCNCC3)cc(-c3ccc(N4CCNCC4)cc3)n2)cc1", "note": "[Example 39]", "IC50": 0.19}, {"molecule": "COc1ccc(-c2cc(NCCCN(C)C)cc(-c3ccc(N4CCN(C)CC4)cc3)n2)cc1", "note": "[Example 40]", "IC50": 0.21}, {"molecule": "COc1ccc(-c2cc(N(C)C3CCNCC3)cc(-c3ccc(N4CCNCC4)cc3)n2)cc1", "note": "[Example 41]", "IC50": 0.33}]}, {"biological_target": "TDP-43 1-260 (Homo sapiens, UniProt Q13148)", "assay": "TDP-43 alpha-screen assay with bt-TAR32", "type": "binding", "conditions": "same alpha-screen assay using bt-TAR32, side-by-side, three independent assays; average", "units": {"increase in potency versus Compound I (average)": "X"}, "values": [{"molecule": "COc1ccc(-c2cc(NC3CCN(C4CCC(N)CC4)CC3)cc(-c3ccc(N4CCNCC4)cc3)n2)cc1", "note": "(stereo not drawn) [Example 3]", "increase in potency versus Compound I (average)": 14}]}, {"biological_target": "TDP-43 1-260 (Homo sapiens, UniProt Q13148)", "assay": "TDP-43 alpha-screen assay with bt-TAR32", "type": "binding", "conditions": "same alpha-screen assay using bt-TAR32, side-by-side, three independent assays; range", "values": [{"molecule": "COc1ccc(-c2cc(NC3CCN(C4CCC(N)CC4)CC3)cc(-c3ccc(N4CCNCC4)cc3)n2)cc1", "note": "(stereo not drawn) [Example 3]", "increase in potency versus Compound I": "11-18 X"}]}]}
